Experimental data: PMC3454513 (Nature structural & molecular biology, 2012)

Tests used:
[1] = system: p53; experiment: Immunoblot of p53 phosphorylated at Ser15, HCT 116 cells; type: cell-based, human; conditions: 10 μM doxorubicin or 100 μM etoposide for 4 h
[2] = system: PHF20 Tudor2 and Tudor1-2; type: binding, human; conditions: peptide array (Supplementary Fig. 1)
[3] = biological target: the molecule itself; experiment: mass spectrometry

Molecule	interaction with PHF20 among the four known methylated forms of p53 [2]	further results
COc1cccc2c1C(=O)c1c(O)c3c(c(O)c1C2=O)C[C@@](O)(C(=O)CO)C[C@@H]3O[C@H]1C[C@H](N)[C@H](O)[C@H](C)O1 [doxorubicin]		phosphorylation of p53 at Ser15 [1]: induced phosphorylation of p53 at Ser15
p53K370me2: Cy3-labeled 18-amino acid p53 peptide dimethylated at Lys370	strongest interaction	
p53K382me2: Cy3-labeled 18-amino acid p53 peptide dimethylated at Lys382	strongest interaction	
PHF20 Tudor2 (amino acids 84–147), disulfide cross-linked homodimer (domain or fragment, human, UniProt Q9BVI0 84-147, looked up, disulfide bonds between Cys96 and Cys100 of subunit A and Cys100 and Cys96 of subunit B) SSEFQINEQVLACWSDCRFYPAKVTAVNKDGTYTVKFYDGVVQTVKHIHVKAFSKDQNIVGNAR		stoichiometry N [3]: 2
